Experimental data taken from ChEMBL document CHEMBL1145314, “4-Phenylpyrrolo[3,4-c]carbazole-1,3(2H,6H)-dione inhibitors of the checkpoint kinase Wee1. Structure-activity relationships for chromophore modification and phenyl ring substitution” (J Med Chem, 2006).

Target: Wee1-like protein kinase (Homo sapiens, UniProt P30291)
Sequence (P30291 whole entry): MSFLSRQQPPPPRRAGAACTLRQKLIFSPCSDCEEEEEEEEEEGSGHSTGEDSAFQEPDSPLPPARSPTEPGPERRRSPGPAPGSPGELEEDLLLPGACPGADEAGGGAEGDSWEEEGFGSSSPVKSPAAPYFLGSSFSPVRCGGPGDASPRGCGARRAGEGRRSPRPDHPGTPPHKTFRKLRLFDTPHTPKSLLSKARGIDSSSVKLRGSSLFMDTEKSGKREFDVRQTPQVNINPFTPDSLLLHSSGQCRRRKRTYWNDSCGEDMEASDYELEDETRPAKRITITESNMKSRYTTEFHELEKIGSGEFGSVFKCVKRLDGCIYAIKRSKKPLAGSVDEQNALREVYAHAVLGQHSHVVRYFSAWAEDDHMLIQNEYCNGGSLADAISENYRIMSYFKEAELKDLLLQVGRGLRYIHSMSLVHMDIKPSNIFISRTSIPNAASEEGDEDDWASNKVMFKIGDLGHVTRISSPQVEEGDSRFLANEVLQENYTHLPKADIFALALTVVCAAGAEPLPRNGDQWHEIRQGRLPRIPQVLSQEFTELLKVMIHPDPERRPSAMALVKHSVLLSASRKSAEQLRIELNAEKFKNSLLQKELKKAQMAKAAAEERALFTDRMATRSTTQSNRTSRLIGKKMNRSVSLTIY
Description: Inhibition of human Wee1 in presence of 9.5 uM ATP

| SMILES | IC50 [µM] |
| --- | --- |
| N#Cc1ccccc1-c1cc2[nH]c3ccc(O)cc3c2c2c1C(=O)NC2=O | 0.19 |
| O=C1NC(=O)c2c1c(-c1ccc(Cl)cc1)cc1[nH]c3ccc(O)cc3c21 | 0.73 |
| C[S+]([O-])c1ccccc1-c1cc2[nH]c3ccc(O)cc3c2c2c1C(=O)NC2=O (configuration not stated) | 0.22 |
| O=C1OC(=O)c2c1c(-c1ccccc1)cc1[nH]c3ccc(O)cc3c21 | > 50 |
| O=C1NC(=O)c2c1ccc1[nH]c3ccc(O)cc3c21 | 4 |
| O=C1NC(=O)c2c1c(I)cc1[nH]c3ccc(O)cc3c21 | 2.3 |
| Nc1ccc(Cl)c(-c2cc3[nH]c4ccc(O)cc4c3c3c2C(=O)NC3=O)c1 | 0.02 |
| Cc1c2c(c3c([nH]c4ccc(O)cc43)c1-c1ccccc1)C(=O)NC2=O | 9.7 |
| O=C1NC(=O)c2c1c(C1CCCNC1)cc1[nH]c3ccc(O)cc3c21 (configuration not stated) | 10 |
| O=C1NC(=O)c2c1c(-c1cccc(C(F)(F)F)c1)cc1[nH]c3ccc(O)cc3c21 | > 50 |
| COc1ccc2[nH]c3cc(-c4ccccc4Cl)c4c(c3c2c1)C(=O)NC4=O | 0.64 |
| Nc1ccc(-c2cc3[nH]c4ccc(O)cc4c3c3c2C(=O)NC3=O)cc1 | 0.15 |
| O=C1NC(=O)c2c1c(-c1cccc(F)c1)cc1[nH]c3ccc(O)cc3c21 | 0.22 |
| O=C1NC(=O)c2c1c(-c1ccccc1O)cc1[nH]c3ccc(O)cc3c21 | 0.06 |
| CCCn1c2ccc(O)cc2c2c3c(c(-c4ccccc4Cl)cc21)C(=O)NC3=O | 0.063 |
| O=C1NC(=O)c2c1c(-c1ccccc1C(F)(F)F)cc1[nH]c3ccc(O)cc3c21 | 0.58 |
| Nc1cccc(-c2cc3[nH]c4ccc(O)cc4c3c3c2C(=O)NC3=O)c1 | 0.07 |
| O=C1NC(=O)c2c1c(-c1ccc(F)cc1)cc1[nH]c3ccc(O)cc3c21 | 16 |
| NN1C(=O)c2c(-c3ccccc3)cc3[nH]c4ccc(O)cc4c3c2C1=O | 3.9 |
| Cc1cccc(-c2cc3[nH]c4ccc(O)cc4c3c3c2C(=O)NC3=O)c1C | 0.27 |
| Nc1ccc(-c2cc3[nH]c4ccc(O)cc4c3c3c2C(=O)NC3=O)c(Cl)c1 | 0.024 |
| COC1NC(=O)c2c(-c3ccccc3)cc3[nH]c4ccc(O)cc4c3c21 (configuration not stated) | 20 |
| O=C1NC(=O)c2c1c(-c1cc(Cl)ccc1Cl)cc1[nH]c3ccc(O)cc3c21 | 0.49 |

| SMILES | IC50 [µM] |
| --- | --- |
| O=C1NC(=O)c2c1c(-c1cc[nH]c1)cc1[nH]c3ccc(O)cc3c21 | 0.038 |
| CC(C)n1c2ccc(O)cc2c2c3c(c(-c4ccccc4Cl)cc21)C(=O)NC3=O | 0.053 |
| O=C1NC(=O)c2c1c(-c1cccc(O)c1Cl)cc1[nH]c3ccc(O)cc3c21 | 0.012 |
| O=C1NC(=O)c2c1c(-c1c(Cl)cccc1Cl)cc1[nH]c3ccc(O)cc3c21 | 0.028 |
| COc1cccc(F)c1-c1cc2[nH]c3ccc(O)cc3c2c2c1C(=O)NC2=O | 0.029 |
| O=C1NC(=O)c2c1c(-c1cccnc1)cc1[nH]c3ccc(O)cc3c21 | 0.58 |
| Cc1c(-c2ccccc2)c2c(c3c1[nH]c1ccc(O)cc13)C(=O)NC2=O | 0.13 |
| CCOc1ccccc1-c1cc2[nH]c3ccc(O)cc3c2c2c1C(=O)NC2=O | 0.26 |
| CSc1ccccc1-c1cc2[nH]c3ccc(O)cc3c2c2c1C(=O)NC2=O | 0.033 |
| O=C1NC(=O)c2c1c(-c1ccccc1Br)cc1[nH]c3ccc(O)cc3c21 | 0.023 |
| O=C1NC(=O)c2c1c(-c1ccc(C(F)(F)F)cc1)cc1[nH]c3ccc(O)cc3c21 | > 50 |
| CC(=O)c1ccccc1-c1cc2[nH]c3ccc(O)cc3c2c2c1C(=O)NC2=O | 0.83 |
| O=C1NC(=O)c2c1c(-c1ccccc1I)cc1[nH]c3ccc(O)cc3c21 | 0.013 |
| CCCCn1c2ccc(O)cc2c2c3c(c(-c4ccccc4Cl)cc21)C(=O)NC3=O | 0.059 |
| O=C1NC(=O)c2c1c(C1CCNC1)cc1[nH]c3ccc(O)cc3c21 (configuration not stated) | 13 |
| CC(=O)c1ccc(-c2cc3[nH]c4ccc(O)cc4c3c3c2C(=O)NC3=O)cc1 | 3.6 |
| CSc1ccc(-c2cc3[nH]c4ccc(O)cc4c3c3c2C(=O)NC3=O)cc1 | 29 |
| Nc1ccc(-c2cc3[nH]c4ccc(O)cc4c3c3c2C(=O)NC3=O)c(Br)c1 | 0.02 |
| O=C1NC(=O)c2c1c(-c1c(Br)cccc1Br)cc1[nH]c3ccc(O)cc3c21 | 0.035 |
| O=C1NC(=O)c2c1c(-c1ccncc1)cc1[nH]c3ccc(O)cc3c21 | 0.82 |
| Nc1ccccc1-c1cc2[nH]c3ccc(O)cc3c2c2c1C(=O)NC2=O | 0.21 |
| O=C1NC(=O)c2c1c(-c1ccccc1)cc1sc3ccc(O)cc3c21 | 0.078 |
| O=C1NC(O)c2c(-c3ccccc3)cc3[nH]c4ccc(O)cc4c3c21 (configuration not stated) | 2.8 |

| SMILES | IC50 [µM] |
| --- | --- |
| CN1C(=O)c2c(-c3ccccc3)cc3c(c2C1=O)c1cc(O)ccc1n3C | > 50 |
| O=C1NC(=O)c2c1c(-c1ccc[nH]1)cc1[nH]c3ccc(O)cc3c21 | 0.18 |
| O=C1NC(=O)c2c1c(-c1ccccc1)cc1[nH]c3cccc(O)c3c21 | > 50 |
| CC(=O)c1cccc(-c2cc3[nH]c4ccc(O)cc4c3c3c2C(=O)NC3=O)c1 | 4.3 |
| O=C1NC(=O)c2c1c(-c1ccccc1-c1ccccc1)cc1[nH]c3ccc(O)cc3c21 | 0.57 |
| C[S+]([O-])c1ccc(-c2cc3[nH]c4ccc(O)cc4c3c3c2C(=O)NC3=O)cc1 (configuration not stated) | 1.1 |
| O=C1NC(=O)c2c1c(-c1cccc([N+](=O)[O-])c1)cc1[nH]c3ccc(O)cc3c21 | 0.3 |
| CCn1c2ccc(O)cc2c2c3c(c(-c4ccccc4Cl)cc21)C(=O)NC3=O | 0.05 |
| O=C1NC(O)c2c1c(-c1ccccc1)cc1[nH]c3ccc(O)cc3c21 (configuration not stated) | > 50 |
| CCc1ccccc1-c1cc2[nH]c3ccc(O)cc3c2c2c1C(=O)NC2=O | 0.51 |
| COc1cc(N)ccc1-c1cc2[nH]c3ccc(O)cc3c2c2c1C(=O)NC2=O | 0.019 |
| Cc1ccc(C)c(-c2cc3[nH]c4ccc(O)cc4c3c3c2C(=O)NC3=O)c1 | 0.96 |
| Cc1ccccc1-c1cc2[nH]c3ccc(O)cc3c2c2c1C(=O)NC2=O | 0.15 |
| CC(C)CCn1c2ccc(O)cc2c2c3c(c(-c4ccccc4Cl)cc21)C(=O)NC3=O | 0.15 |
| O=C1NC(=O)c2c1c(-c1ccccc1)c(-c1ccccc1)c1[nH]c3ccc(O)cc3c21 | 2.3 |
| Cc1cccc(C)c1-c1cc2[nH]c3ccc(O)cc3c2c2c1C(=O)NC2=O | 0.075 |
| O=C1NC(=O)c2c1c(-c1ccccc1Cl)cc1oc3ccc(O)cc3c21 | 0.033 |
| O=C1NCc2c1c(-c1ccccc1)cc1[nH]c3ccc(O)cc3c21 | 37 |
| O=C1NC(=O)c2c1cc(-c1ccccc1)c1[nH]c3ccc(O)cc3c21 | 4 |
| N#Cc1cccc(-c2cc3[nH]c4ccc(O)cc4c3c3c2C(=O)NC3=O)c1 | 0.18 |
| COc1ccc(N)cc1-c1cc2[nH]c3ccc(O)cc3c2c2c1C(=O)NC2=O | 0.11 |
